What was measured:
Assay in all cases: KINOMEscan
Assay type in all cases: binding
[1] = biological target: T1, ABL2 (Homo sapiens, UniProt P42684)
T1 construct: purchased Eurofins DiscoverX KINOMEscan
Summary of the method: (§1)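 1 h RT binding → immobilized-ligand capture of free kinase → qPCR quantitation. Kd: 12 half-log points, max 33 μM.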

[2] = biological target: T2, AKT3 (Homo sapiens, UniProt Q9Y243)
T2 construct: purchased Eurofins DiscoverX KINOMEscan
Summary of the method: as §1

[3] = biological target: T3, BRSK1 (Homo sapiens, UniProt Q8TDC3)
T3 construct: purchased Eurofins DiscoverX KINOMEscan
Summary of the method: as §1

[4] = biological target: T4, BRSK2 (Homo sapiens, UniProt Q8IWQ3)
T4 construct: purchased Eurofins DiscoverX KINOMEscan
Summary of the method: as §1

[5] = biological target: T5, CDK9 (Homo sapiens, UniProt P50750)
T5 construct: purchased Eurofins DiscoverX KINOMEscan
Summary of the method: as §1

[6] = biological target: T6, CDKL2 (Homo sapiens, UniProt Q92772)
T6 construct: purchased Eurofins DiscoverX KINOMEscan
T6 sequence (Q92772 whole entry): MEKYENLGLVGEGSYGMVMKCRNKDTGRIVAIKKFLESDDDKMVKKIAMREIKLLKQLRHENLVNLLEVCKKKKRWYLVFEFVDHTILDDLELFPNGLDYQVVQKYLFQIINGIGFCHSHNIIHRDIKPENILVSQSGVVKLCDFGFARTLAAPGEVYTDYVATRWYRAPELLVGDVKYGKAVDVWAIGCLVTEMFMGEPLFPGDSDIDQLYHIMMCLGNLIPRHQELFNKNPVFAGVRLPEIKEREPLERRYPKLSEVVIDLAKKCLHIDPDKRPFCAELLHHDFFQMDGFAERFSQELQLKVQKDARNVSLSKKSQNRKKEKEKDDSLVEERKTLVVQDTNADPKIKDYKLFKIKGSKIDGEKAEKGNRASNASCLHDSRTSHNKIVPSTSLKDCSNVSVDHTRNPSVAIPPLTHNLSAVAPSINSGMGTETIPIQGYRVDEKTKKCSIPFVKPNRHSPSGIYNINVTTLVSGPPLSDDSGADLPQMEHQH
Summary of the method: as §1

[7] = biological target: T7, CDKL5 (Homo sapiens, UniProt O76039)
T7 construct: purchased Eurofins DiscoverX KINOMEscan
T7 sequence (O76039 whole entry): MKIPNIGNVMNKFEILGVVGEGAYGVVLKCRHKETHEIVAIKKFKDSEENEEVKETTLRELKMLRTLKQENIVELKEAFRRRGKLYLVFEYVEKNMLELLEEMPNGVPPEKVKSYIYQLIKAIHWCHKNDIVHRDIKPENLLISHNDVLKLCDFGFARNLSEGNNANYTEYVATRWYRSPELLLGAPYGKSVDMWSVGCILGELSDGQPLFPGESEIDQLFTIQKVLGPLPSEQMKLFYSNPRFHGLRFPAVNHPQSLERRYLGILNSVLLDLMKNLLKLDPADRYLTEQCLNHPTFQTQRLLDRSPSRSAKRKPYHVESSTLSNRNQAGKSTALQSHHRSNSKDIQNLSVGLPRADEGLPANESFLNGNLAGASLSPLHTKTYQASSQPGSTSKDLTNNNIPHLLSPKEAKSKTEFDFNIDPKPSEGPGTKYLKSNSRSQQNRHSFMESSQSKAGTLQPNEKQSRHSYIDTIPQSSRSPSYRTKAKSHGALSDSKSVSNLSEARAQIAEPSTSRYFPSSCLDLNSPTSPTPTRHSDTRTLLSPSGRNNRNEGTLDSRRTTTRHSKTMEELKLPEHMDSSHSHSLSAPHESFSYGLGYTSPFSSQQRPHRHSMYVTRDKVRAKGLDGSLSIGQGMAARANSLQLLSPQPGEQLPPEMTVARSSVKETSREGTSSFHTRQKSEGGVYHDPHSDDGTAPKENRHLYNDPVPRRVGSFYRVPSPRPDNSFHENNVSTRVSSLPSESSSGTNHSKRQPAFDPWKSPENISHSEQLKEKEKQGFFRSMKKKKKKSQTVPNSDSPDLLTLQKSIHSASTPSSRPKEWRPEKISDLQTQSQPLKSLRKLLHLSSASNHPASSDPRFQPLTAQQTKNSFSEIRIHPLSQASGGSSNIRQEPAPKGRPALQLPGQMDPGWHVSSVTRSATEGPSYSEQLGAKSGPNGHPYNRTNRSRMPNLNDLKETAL
Summary of the method: as §1

[8] = biological target: T8, CHEK2 (Homo sapiens, UniProt O96017)
T8 construct: purchased Eurofins DiscoverX KINOMEscan
Summary of the method: as §1

[9] = biological target: T9, CSNK1D (Homo sapiens, UniProt P48730)
T9 construct: purchased Eurofins DiscoverX KINOMEscan
Summary of the method: as §1

[10] = biological target: T10, CSNK1G2 (Homo sapiens, UniProt P78368)
T10 construct: purchased Eurofins DiscoverX KINOMEscan
Summary of the method: as §1

[11] = biological target: T11, DCAMKL3 (Homo sapiens, UniProt Q9C098)
T11 construct: purchased Eurofins DiscoverX KINOMEscan
Summary of the method: as §1

[12] = biological target: T12, DMPK2 (Homo sapiens, UniProt Q6DT37)
T12 construct: purchased Eurofins DiscoverX KINOMEscan
Summary of the method: as §1

[13] = biological target: T13, EGFR (G719C) (Homo sapiens, UniProt P00533, G719C)
T13 construct: purchased Eurofins DiscoverX KINOMEscan
Summary of the method: as §1

[14] = biological target: T14, EGFR (S752-I759 del) (Homo sapiens, UniProt P00533, DEL752-759)
T14 construct: purchased Eurofins DiscoverX KINOMEscan
Summary of the method: as §1

[15] = biological target: T15, EPHA5 (Homo sapiens, UniProt P54756)
T15 construct: purchased Eurofins DiscoverX KINOMEscan
Summary of the method: as §1

[16] = biological target: T16, EPHB4 (Homo sapiens, UniProt P54760)
T16 construct: purchased Eurofins DiscoverX KINOMEscan
Summary of the method: as §1

[17] = biological target: T17, FGFR3 (Homo sapiens, UniProt P22607)
T17 construct: purchased Eurofins DiscoverX KINOMEscan
Summary of the method: as §1

[18] = biological target: T18, GRK7 (Homo sapiens, UniProt Q8WTQ7)
T18 construct: purchased Eurofins DiscoverX KINOMEscan
Summary of the method: as §1

[19] = biological target: T19, IGF1R (Homo sapiens, UniProt P08069)
T19 construct: purchased Eurofins DiscoverX KINOMEscan
Summary of the method: as §1

[20] = biological target: T20, KIT (D816H) (Homo sapiens, UniProt P10721, D816H)
T20 construct: purchased Eurofins DiscoverX KINOMEscan
Summary of the method: as §1

[21] = biological target: T21, KIT (Homo sapiens, UniProt P10721)
T21 construct: purchased Eurofins DiscoverX KINOMEscan
Summary of the method: as §1

[22] = biological target: T22, MAP3K4 (Homo sapiens, UniProt Q9Y6R4)
T22 construct: purchased Eurofins DiscoverX KINOMEscan
Summary of the method: as §1

[23] = biological target: T23, MAP4K3 (Homo sapiens, UniProt Q8IVH8)
T23 construct: purchased Eurofins DiscoverX KINOMEscan
Summary of the method: as §1

[24] = biological target: T24, MKK7 (Homo sapiens, UniProt O14733)
T24 construct: purchased Eurofins DiscoverX KINOMEscan
T24 sequence (O14733 whole entry): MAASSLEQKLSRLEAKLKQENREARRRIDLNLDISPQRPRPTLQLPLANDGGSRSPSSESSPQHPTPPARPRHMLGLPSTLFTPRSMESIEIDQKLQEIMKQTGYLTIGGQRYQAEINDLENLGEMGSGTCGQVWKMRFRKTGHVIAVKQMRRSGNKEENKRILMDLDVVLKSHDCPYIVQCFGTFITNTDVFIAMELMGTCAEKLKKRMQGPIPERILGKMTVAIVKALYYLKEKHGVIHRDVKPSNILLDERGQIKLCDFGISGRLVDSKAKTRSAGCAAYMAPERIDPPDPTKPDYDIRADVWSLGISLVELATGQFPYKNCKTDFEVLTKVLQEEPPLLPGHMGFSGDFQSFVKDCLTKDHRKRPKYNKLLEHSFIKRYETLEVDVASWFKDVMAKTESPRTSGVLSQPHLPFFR
Summary of the method: as §1

[25] = biological target: T25, MKNK2 (Homo sapiens, UniProt Q9HBH9)
T25 construct: purchased Eurofins DiscoverX KINOMEscan
Summary of the method: as §1

[26] = biological target: T26, MST1 (Homo sapiens, UniProt Q13043)
T26 construct: purchased Eurofins DiscoverX KINOMEscan
Summary of the method: as §1

[27] = biological target: T27, MYLK4 (Homo sapiens, UniProt Q86YV6)
T27 construct: purchased Eurofins DiscoverX KINOMEscan
Summary of the method: as §1

[28] = biological target: T28, NEK1 (Homo sapiens, UniProt Q96PY6)
T28 construct: purchased Eurofins DiscoverX KINOMEscan
Summary of the method: as §1

[29] = biological target: T29, PAK3 (Homo sapiens, UniProt O75914)
T29 construct: purchased Eurofins DiscoverX KINOMEscan
Summary of the method: as §1

[30] = biological target: T30, PDGFRA (Homo sapiens, UniProt P16234)
T30 construct: purchased Eurofins DiscoverX KINOMEscan
Summary of the method: as §1

[31] = biological target: T31, PIK4CB (Homo sapiens, UniProt Q9UBF8)
T31 construct: purchased Eurofins DiscoverX KINOMEscan
T31 sequence (Q9UBF8 whole entry): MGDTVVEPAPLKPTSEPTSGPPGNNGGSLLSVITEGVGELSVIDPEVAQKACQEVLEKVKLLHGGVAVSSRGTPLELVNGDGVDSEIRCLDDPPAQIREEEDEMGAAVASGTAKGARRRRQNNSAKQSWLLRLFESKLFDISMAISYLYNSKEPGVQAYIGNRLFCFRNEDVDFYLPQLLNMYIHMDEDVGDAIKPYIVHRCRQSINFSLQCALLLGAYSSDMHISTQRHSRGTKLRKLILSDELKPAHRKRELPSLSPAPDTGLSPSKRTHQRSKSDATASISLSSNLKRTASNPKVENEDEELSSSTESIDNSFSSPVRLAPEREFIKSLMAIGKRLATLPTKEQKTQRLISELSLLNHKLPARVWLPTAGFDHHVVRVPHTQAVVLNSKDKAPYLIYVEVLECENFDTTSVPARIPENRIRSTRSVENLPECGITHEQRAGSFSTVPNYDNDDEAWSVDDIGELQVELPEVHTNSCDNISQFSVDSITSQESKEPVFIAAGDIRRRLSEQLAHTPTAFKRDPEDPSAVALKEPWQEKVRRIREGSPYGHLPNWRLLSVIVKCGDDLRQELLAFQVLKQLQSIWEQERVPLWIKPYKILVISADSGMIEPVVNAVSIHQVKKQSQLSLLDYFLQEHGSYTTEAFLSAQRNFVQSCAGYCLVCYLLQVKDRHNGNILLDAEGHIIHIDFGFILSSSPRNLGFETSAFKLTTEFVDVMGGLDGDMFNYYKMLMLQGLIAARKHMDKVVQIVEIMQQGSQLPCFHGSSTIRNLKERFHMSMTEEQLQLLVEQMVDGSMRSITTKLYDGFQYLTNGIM
Summary of the method: as §1

[32] = biological target: T32, PIM3 (Homo sapiens, UniProt Q86V86)
T32 construct: purchased Eurofins DiscoverX KINOMEscan
Summary of the method: as §1

[33] = biological target: T33, PKAC-β (Homo sapiens, UniProt P22694)
T33 construct: purchased Eurofins DiscoverX KINOMEscan
Summary of the method: as §1

[34] = biological target: T34, ROS1 (Homo sapiens, UniProt P08922)
T34 construct: purchased Eurofins DiscoverX KINOMEscan
Summary of the method: as §1

[35] = biological target: T35, RSK4 (Kin. Dom.1-N-term.) (Homo sapiens, UniProt Q9UK32)
T35 construct: RSK4 (Kin. Dom.1-N-term.); purchased Eurofins DiscoverX KINOMEscan
Summary of the method: as §1

[36] = biological target: T36, SGK2 (Homo sapiens, UniProt Q9HBY8)
T36 construct: purchased Eurofins DiscoverX KINOMEscan
T36 sequence (Q9HBY8 whole entry): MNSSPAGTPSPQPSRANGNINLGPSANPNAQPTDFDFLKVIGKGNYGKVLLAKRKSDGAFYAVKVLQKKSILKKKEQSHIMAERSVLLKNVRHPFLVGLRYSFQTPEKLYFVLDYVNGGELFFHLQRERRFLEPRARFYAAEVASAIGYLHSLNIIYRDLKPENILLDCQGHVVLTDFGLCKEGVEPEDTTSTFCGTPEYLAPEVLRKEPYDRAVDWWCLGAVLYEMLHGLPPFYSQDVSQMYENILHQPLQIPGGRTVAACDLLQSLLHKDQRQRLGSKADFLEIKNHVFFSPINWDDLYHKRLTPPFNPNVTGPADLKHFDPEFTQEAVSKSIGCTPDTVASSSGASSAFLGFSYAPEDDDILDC
Summary of the method: as §1

[37] = biological target: T37, TEC (Homo sapiens, UniProt P42680)
T37 construct: purchased Eurofins DiscoverX KINOMEscan
Summary of the method: as §1

[38] = biological target: T38, TRKA (Homo sapiens, UniProt P04629)
T38 construct: purchased Eurofins DiscoverX KINOMEscan
Summary of the method: as §1

[39] = biological target: T39, ULK2 (Homo sapiens, UniProt Q8IYT8)
T39 construct: purchased Eurofins DiscoverX KINOMEscan
Summary of the method: as §1

[40] = biological target: T40, YANK1 (Homo sapiens, UniProt Q8WU08)
T40 construct: purchased Eurofins DiscoverX KINOMEscan
Summary of the method: as §1

T1 sequence (P42684 whole entry): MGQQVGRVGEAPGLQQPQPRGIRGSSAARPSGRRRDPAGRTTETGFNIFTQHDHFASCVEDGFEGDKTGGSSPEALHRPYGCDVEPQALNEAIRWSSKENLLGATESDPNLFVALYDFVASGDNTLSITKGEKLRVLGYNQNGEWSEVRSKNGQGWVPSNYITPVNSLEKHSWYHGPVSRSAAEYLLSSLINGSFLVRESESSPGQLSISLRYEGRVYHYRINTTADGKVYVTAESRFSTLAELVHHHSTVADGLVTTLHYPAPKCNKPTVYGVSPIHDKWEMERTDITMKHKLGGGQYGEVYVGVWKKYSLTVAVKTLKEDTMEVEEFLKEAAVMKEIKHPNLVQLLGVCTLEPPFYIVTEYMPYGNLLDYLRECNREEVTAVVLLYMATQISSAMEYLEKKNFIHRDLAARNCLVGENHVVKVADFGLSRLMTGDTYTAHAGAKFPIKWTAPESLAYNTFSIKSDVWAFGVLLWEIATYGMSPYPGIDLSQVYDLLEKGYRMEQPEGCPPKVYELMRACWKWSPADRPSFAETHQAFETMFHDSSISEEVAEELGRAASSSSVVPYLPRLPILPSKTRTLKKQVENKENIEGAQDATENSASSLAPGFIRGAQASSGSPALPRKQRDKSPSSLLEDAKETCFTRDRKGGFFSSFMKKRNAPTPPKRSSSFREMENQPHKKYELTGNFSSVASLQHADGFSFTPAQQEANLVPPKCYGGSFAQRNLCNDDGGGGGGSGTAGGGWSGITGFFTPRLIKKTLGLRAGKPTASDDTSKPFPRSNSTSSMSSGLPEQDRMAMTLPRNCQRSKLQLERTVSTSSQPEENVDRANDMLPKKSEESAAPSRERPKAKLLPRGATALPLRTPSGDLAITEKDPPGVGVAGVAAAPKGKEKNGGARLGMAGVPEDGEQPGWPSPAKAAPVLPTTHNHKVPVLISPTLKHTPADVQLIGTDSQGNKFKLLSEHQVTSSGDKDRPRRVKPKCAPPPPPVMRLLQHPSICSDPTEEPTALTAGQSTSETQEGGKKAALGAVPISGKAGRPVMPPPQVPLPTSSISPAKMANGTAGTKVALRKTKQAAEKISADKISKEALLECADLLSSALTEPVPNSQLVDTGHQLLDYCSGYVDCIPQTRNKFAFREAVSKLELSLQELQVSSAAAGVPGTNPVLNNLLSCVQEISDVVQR
T2 sequence (Q9Y243 whole entry): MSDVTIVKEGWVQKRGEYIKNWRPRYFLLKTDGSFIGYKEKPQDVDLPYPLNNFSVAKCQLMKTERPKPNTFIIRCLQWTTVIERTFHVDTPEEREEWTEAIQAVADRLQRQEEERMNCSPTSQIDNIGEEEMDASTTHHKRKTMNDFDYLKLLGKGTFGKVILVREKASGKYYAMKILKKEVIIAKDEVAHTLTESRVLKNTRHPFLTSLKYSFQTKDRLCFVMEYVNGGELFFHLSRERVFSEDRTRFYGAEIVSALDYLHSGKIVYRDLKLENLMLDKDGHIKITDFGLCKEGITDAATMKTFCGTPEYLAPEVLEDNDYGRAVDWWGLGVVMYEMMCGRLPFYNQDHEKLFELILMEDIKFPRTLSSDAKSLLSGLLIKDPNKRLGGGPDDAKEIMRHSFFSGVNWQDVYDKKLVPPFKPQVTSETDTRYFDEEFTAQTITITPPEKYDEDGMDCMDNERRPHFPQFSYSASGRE

## O=C1Nc2c(cc([N+](=O)[O-])c3c2CCCC3)C1=NO [Compound 5d, 3-(Hydroxyimino)-5-nitro-1,3,6,7,8,9-hexahydro-2H-benzo[g]indol-2-one]
[1]
  inhibition at 10 µM: 2%
[2]
  inhibition at 10 µM: 9%
[3]
  inhibition at 10 µM: 36%
[4]
  inhibition at 10 µM: 31%
[5]
  inhibition at 10 µM: 0%
[6]
  inhibition at 10 µM: 13%
[7]
  inhibition at 10 µM: 0%
[8]
  inhibition at 10 µM: 48%
[9]
  inhibition at 10 µM: 79%
[10]
  inhibition at 10 µM: 90%
[11]
  inhibition at 10 µM: 10%
[12]
  inhibition at 10 µM: 3%
[13]
  inhibition at 10 µM: 24%
[14]
  inhibition at 10 µM: 16%
[15]
  inhibition at 10 µM: 9%
[16]
  inhibition at 10 µM: 0%
[17]
  inhibition at 10 µM: 14%
[18]
  inhibition at 10 µM: 43%
[19]
  inhibition at 10 µM: 0%
[20]
  inhibition at 10 µM: 1%
[21]
  inhibition at 10 µM: 0%
[22]
  inhibition at 10 µM: 15%
[23]
  inhibition at 10 µM: 11%
[24]
  inhibition at 10 µM: 0%
[24]; 10 μM
  Inhib. (%): inactive
[25]
  inhibition at 10 µM: 93.2%
[26]
  inhibition at 10 µM: 32%
[27]
  inhibition at 10 µM: 7%
[28]
  inhibition at 10 µM: 31%
[29]
  inhibition at 10 µM: 67%
[30]
  inhibition at 10 µM: 0%
[31]
  inhibition at 10 µM: 95.9%
[32]
  inhibition at 10 µM: 95.8%
[33]
  inhibition at 10 µM: 2%
[34]
  inhibition at 10 µM: 67%
[35]
  inhibition at 10 µM: 77%
[36]
  inhibition at 10 µM: 88%
[37]
  inhibition at 10 µM: 9%
[38]
  inhibition at 10 µM: 0%
[39]
  inhibition at 10 µM: 52%
[40]
  inhibition at 10 µM: 11%
